Where two headings read alike, the source gives them in different places.
Experiments:
134 cancer cell lines [1] = tested on: 134 cancer cell lines
134 cancer cell lines [2] = test: Cell viability assay (ATPlite, 72 hours), IC50 on cancer cell line panel

Q: `COc1ccc(CN2C3CC2CN(c2ccc(-c4cc(OCC(C)(C)O)cn5ncc(C#N)c45)cn2)C3)cn1` [selpercatinib] was tested. Which IC50 (134 cancer cell lines [1]) did it give?
A: 3.85 µM

Q: What about the IC50 (134 cancer cell lines [2]; HEC-6, read-out: IC50 in cell proliferation assay, HEC-6 cell line (EGFR p.A289V)) of the same molecule?
A: > 31.6 µM

Q: And the IC50 (134 cancer cell lines [2]; Homo sapiens, 769-P, read-out: IC50 in cell proliferation assay, cell line 769-P)?
A: 5.72 µM

Q: What about the IC50 (134 cancer cell lines [2]; Homo sapiens, 786-0, read-out: IC50 in cell proliferation assay, cell line 786-O) of the same molecule?
A: 7.5 µM

Q: And the IC50 (134 cancer cell lines [2]; Homo sapiens, A 172, read-out: IC50 in cell proliferation assay, cell line A-172)?
A: 1.33 µM

Q: What about the IC50 (134 cancer cell lines [2]; Homo sapiens, A204, read-out: IC50 in cell proliferation assay, cell line A-204) of the same molecule?
A: 2.47 µM

Q: What about the IC50 (134 cancer cell lines [2]; Homo sapiens, A498, read-out: IC50 in cell proliferation assay, cell line A-498) of the same molecule?
A: 6.25 µM

Q: And the IC50 (134 cancer cell lines [2]; Homo sapiens, A549, read-out: IC50 in cell proliferation assay, cell line A-549)?
A: 3.75 µM

Q: What about the IC50 (134 cancer cell lines [2]; Homo sapiens, A704, read-out: IC50 in cell proliferation assay, cell line A-704) of the same molecule?
A: 2.74 µM

Q: What about the IC50 (134 cancer cell lines [2]; Homo sapiens, A-375, read-out: IC50 in cell proliferation assay, cell line A-375 (BRAF p.V600E)) of the same molecule?
A: 4.28 µM

Q: And the IC50 (134 cancer cell lines [2]; Homo sapiens, A-427, read-out: IC50 in cell proliferation assay, cell line A-427)?
A: 1.53 µM

Q: What about the IC50 (134 cancer cell lines [2]; Homo sapiens, ACHN, read-out: IC50 in cell proliferation assay, cell line ACHN) of the same molecule?
A: 2.78 µM

Q: What about the IC50 (134 cancer cell lines [2]; Homo sapiens, AN3-CA, read-out: IC50 in cell proliferation assay, cell line AN3-CA (FGFR2 p.N549K)) of the same molecule?
A: 0.576 µM

Q: And the IC50 (134 cancer cell lines [2]; Homo sapiens, ASPC1, read-out: IC50 in cell proliferation assay, cell line AsPC-1)?
A: > 31.6 µM

Q: And the IC50 (134 cancer cell lines [2]; Homo sapiens, AU565, read-out: IC50 in cell proliferation assay, cell line AU565 (ERBB2 amplification))?
A: 2.85 µM

Q: And the IC50 (134 cancer cell lines [2]; Homo sapiens, BT-20, read-out: IC50 in cell proliferation assay, cell line BT-20)?
A: 3.36 µM

Q: What about the IC50 (134 cancer cell lines [2]; Homo sapiens, BT-474, read-out: IC50 in cell proliferation assay, cell line BT-474 (ERBB2 amplification)) of the same molecule?
A: 28.7 µM

Q: And the IC50 (134 cancer cell lines [2]; Homo sapiens, BT-549, read-out: IC50 in cell proliferation assay, cell line BT-549)?
A: 3.82 µM

Q: What about the IC50 (134 cancer cell lines [2]; Homo sapiens, BXPC-3, read-out: IC50 in cell proliferation assay, cell line BxPC-3) of the same molecule?
A: 3.95 µM

Q: What about the IC50 (134 cancer cell lines [2]; Homo sapiens, C-33-A, read-out: IC50 in cell proliferation assay, cell line C-33 A) of the same molecule?
A: 2.85 µM

Q: And the IC50 (134 cancer cell lines [2]; Homo sapiens, CAL-27, read-out: IC50 in cell proliferation assay, cell line CAL-27)?
A: 4.41 µM

Q: And the IC50 (134 cancer cell lines [2]; Homo sapiens, CCF-STTG1, read-out: IC50 in cell proliferation assay, cell line CCF-STTG1)?
A: 7.96 µM

Q: And the IC50 (134 cancer cell lines [2]; Homo sapiens, CCRF-CEM, read-out: IC50 in cell proliferation assay, cell line CCRF-CEM)?
A: 3.45 µM

Q: What about the IC50 (134 cancer cell lines [2]; Homo sapiens, COLO 205, read-out: IC50 in cell proliferation assay, cell line COLO 205 (BRAF p.V600E)) of the same molecule?
A: 4.42 µM

Q: And the IC50 (134 cancer cell lines [2]; Homo sapiens, COLO-829, read-out: IC50 in cell proliferation assay, cell line COLO 829 (BRAF p.V600E))?
A: 10.7 µM

Q: And the IC50 (134 cancer cell lines [2]; Homo sapiens, DLD-1, read-out: IC50 in cell proliferation assay, cell line DLD-1)?
A: 8.43 µM

Q: And the IC50 (134 cancer cell lines [2]; Homo sapiens, DU-4475, read-out: IC50 in cell proliferation assay, cell line DU4475 (BRAF p.V600E))?
A: 6.24 µM

Q: And the IC50 (134 cancer cell lines [2]; Homo sapiens, Daoy, read-out: IC50 in cell proliferation assay, cell line Daoy)?
A: 3.17 µM

Q: What about the IC50 (134 cancer cell lines [2]; Homo sapiens, DoTc2-4510, read-out: IC50 in cell proliferation assay, cell line DoTc2 4510) of the same molecule?
A: 4.18 µM

Q: And the IC50 (134 cancer cell lines [2]; Homo sapiens, EOL1, read-out: IC50 in cell proliferation assay, cell line EoL-1 (FIP1L1-PDGFRA))?
A: 0.29 µM

Q: And the IC50 (134 cancer cell lines [2]; Homo sapiens, FaDu, read-out: IC50 in cell proliferation assay, cell line FaDu)?
A: 4.82 µM

Q: And the IC50 (134 cancer cell lines [2]; Homo sapiens, G-361, read-out: IC50 in cell proliferation assay, cell line G-361 (BRAF p.V600E))?
A: 5.87 µM

Q: And the IC50 (134 cancer cell lines [2]; Homo sapiens, HCC827, read-out: IC50 in cell proliferation assay, cell line HCC827 (EGFR exon19del))?
A: 13.5 µM

Q: What about the IC50 (134 cancer cell lines [2]; Homo sapiens, HCC4006, read-out: IC50 in cell proliferation assay, cell line HCC4006 (EGFR exon19del)) of the same molecule?
A: 6.75 µM

Q: And the IC50 (134 cancer cell lines [2]; Homo sapiens, HCT-15, read-out: IC50 in cell proliferation assay, cell line HCT 15)?
A: 10.7 µM

Q: What about the IC50 (134 cancer cell lines [2]; Homo sapiens, HCT-116, read-out: IC50 in cell proliferation assay, cell line HCT 116) of the same molecule?
A: 14.9 µM

Q: What about the IC50 (134 cancer cell lines [2]; Homo sapiens, HEC-1, read-out: IC50 in cell proliferation assay, HEC-1 cell line) of the same molecule?
A: 8.9 µM

Q: And the IC50 (134 cancer cell lines [2]; Homo sapiens, HEC-1B, read-out: IC50 in cell proliferation assay, HEC-1-B cell line (EGFR p.A864V))?
A: 2.07 µM

Q: What about the IC50 (134 cancer cell lines [2]; Homo sapiens, HL-60, read-out: IC50 in cell proliferation assay, HL-60 cell line) of the same molecule?
A: 5.79 µM

Q: What about the IC50 (134 cancer cell lines [2]; Homo sapiens, HT, read-out: IC50 in cell proliferation assay, HT cell line) of the same molecule?
A: 4.86 µM

Q: And the IC50 (134 cancer cell lines [2]; Homo sapiens, HT-1080, read-out: IC50 in cell proliferation assay, HT-1080 cell line)?
A: 5.16 µM

Q: And the IC50 (134 cancer cell lines [2]; Homo sapiens, Hs746T, read-out: IC50 in cell proliferation assay, Hs 746.T cell line (MET exon14skip + amplification))?
A: 28.1 µM

Q: And the IC50 (134 cancer cell lines [2]; Homo sapiens, Hs-578T, read-out: IC50 in cell proliferation assay, Hs 578T cell line)?
A: 3.61 µM

Q: What about the IC50 (134 cancer cell lines [2]; Homo sapiens, HuTu80, read-out: IC50 in cell proliferation assay, HuTu 80 cell line) of the same molecule?
A: 1.35 µM

Q: What about the IC50 (134 cancer cell lines [2]; Homo sapiens, J82, read-out: IC50 in cell proliferation assay, J82 cell line) of the same molecule?
A: 3.3 µM

Q: And the IC50 (134 cancer cell lines [2]; Homo sapiens, Jurkat E6.1, read-out: IC50 in cell proliferation assay, Jurkat E6.1 cell line)?
A: 4.03 µM

Q: What about the IC50 (134 cancer cell lines [2]; Homo sapiens, K562, read-out: IC50 in cell proliferation assay, K-562 cell line) of the same molecule?
A: 5.5 µM

Q: And the IC50 (134 cancer cell lines [2]; Homo sapiens, KATO III, read-out: IC50 in cell proliferation assay, KATO III cell line (FGFR2 amplification))?
A: 0.241 µM

Q: And the IC50 (134 cancer cell lines [2]; Homo sapiens, KG-1, read-out: IC50 in cell proliferation assay, KG-1 cell line (FGFR1OP2-FGFR1))?
A: 0.227 µM

Q: What about the IC50 (134 cancer cell lines [2]; Homo sapiens, KLE, read-out: IC50 in cell proliferation assay, KLE cell line) of the same molecule?
A: 5.6 µM

Q: What about the IC50 (134 cancer cell lines [2]; Homo sapiens, KMS-11, read-out: IC50 in cell proliferation assay, KMS-11 cell line (FGFR3 p.Y373C)) of the same molecule?
A: 0.661 µM

Q: And the IC50 (134 cancer cell lines [2]; Homo sapiens, KU812, read-out: IC50 in cell proliferation assay, Ku812 cell line)?
A: 3.54 µM

Q: And the IC50 (134 cancer cell lines [2]; Homo sapiens, Kasumi 1, read-out: IC50 in cell proliferation assay, Kasumi-1 cell line (KIT p.N822K))?
A: 0.277 µM

Q: What about the IC50 (134 cancer cell lines [2]; Homo sapiens, LC-2-ad, read-out: IC50 in cell proliferation assay, LC-2/ad cell line (CCDC6-RET)) of the same molecule?
A: 0.018 µM

Q: And the IC50 (134 cancer cell lines [2]; Homo sapiens, LNCaP-Clone-FGC, read-out: IC50 in cell proliferation assay, LNCaP clone FGC cell line)?
A: 16.8 µM

Q: And the IC50 (134 cancer cell lines [2]; Homo sapiens, LS174T, read-out: IC50 in cell proliferation assay, LS174T cell line)?
A: 4.21 µM

Q: And the IC50 (134 cancer cell lines [2]; Homo sapiens, LS-411N, read-out: IC50 in cell proliferation assay, LS411N cell line (BRAF p.V600E))?
A: 3.76 µM

Q: And the IC50 (134 cancer cell lines [2]; Homo sapiens, LoVo, read-out: IC50 in cell proliferation assay, LoVo cell line)?
A: 0.767 µM

Q: And the IC50 (134 cancer cell lines [2]; Homo sapiens, MCF7, read-out: IC50 in cell proliferation assay, MCF-7 cell line)?
A: > 31.6 µM

Q: And the IC50 (134 cancer cell lines [2]; Homo sapiens, MDA-MB-231, read-out: IC50 in cell proliferation assay, MDA-MB-231 cell line)?
A: 28 µM

Q: And the IC50 (134 cancer cell lines [2]; Homo sapiens, MDA-MB-453, read-out: IC50 in cell proliferation assay, MDA-MB-453 cell line)?
A: > 31.6 µM

Q: What about the IC50 (134 cancer cell lines [2]; Homo sapiens, MDA-MB-468, read-out: IC50 in cell proliferation assay, MDA-MB-468 cell line) of the same molecule?
A: 5.5 µM

Q: And the IC50 (134 cancer cell lines [2]; Homo sapiens, MG-63, read-out: IC50 in cell proliferation assay, MG-63 cell line)?
A: 3.08 µM

Q: And the IC50 (134 cancer cell lines [2]; Homo sapiens, MIA PaCa-2, read-out: IC50 in cell proliferation assay, MIA PaCa-2 cell line)?
A: 3.4 µM

Q: What about the IC50 (134 cancer cell lines [2]; Homo sapiens, MKN-45, read-out: IC50 in cell proliferation assay, MKN45 cell line (MET amplification)) of the same molecule?
A: > 31.6 µM

Q: And the IC50 (134 cancer cell lines [2]; Homo sapiens, MOLM-13, read-out: IC50 in cell proliferation assay, MOLM-13 cell line (FLT3 ITD))?
A: 0.123 µM

Q: And the IC50 (134 cancer cell lines [2]; Homo sapiens, MOLT-4, read-out: IC50 in cell proliferation assay, MOLT-4 cell line)?
A: 1.67 µM

From PMC9516332 (Frontiers in Oncology, 2022)
